US20230346777A1, “USE OF SGC ACTIVATORS FOR THE TREATMENT OF OPHTHALMOLOGIC DISEASES” (Bayer Aktiengesellschaft, priority 2020, published 2023)
Counter-ions that a name gives are not always drawn. Like-named read-outs stand apart in the source and are kept apart here.

How the values were obtained:
[1] = molecular target: T1, recombinant guanylate cyclase reporter cell line (Rattus norvegicus, UniProt P20595); assay: Effect on a recombinant guanylate cyclase reporter cell line; assay type: cell-based
T1 construct: expressed in transfected cells; CHO by own knowledge of the cited Wunder et al. 2005
T1 sequence (P20595 1-619): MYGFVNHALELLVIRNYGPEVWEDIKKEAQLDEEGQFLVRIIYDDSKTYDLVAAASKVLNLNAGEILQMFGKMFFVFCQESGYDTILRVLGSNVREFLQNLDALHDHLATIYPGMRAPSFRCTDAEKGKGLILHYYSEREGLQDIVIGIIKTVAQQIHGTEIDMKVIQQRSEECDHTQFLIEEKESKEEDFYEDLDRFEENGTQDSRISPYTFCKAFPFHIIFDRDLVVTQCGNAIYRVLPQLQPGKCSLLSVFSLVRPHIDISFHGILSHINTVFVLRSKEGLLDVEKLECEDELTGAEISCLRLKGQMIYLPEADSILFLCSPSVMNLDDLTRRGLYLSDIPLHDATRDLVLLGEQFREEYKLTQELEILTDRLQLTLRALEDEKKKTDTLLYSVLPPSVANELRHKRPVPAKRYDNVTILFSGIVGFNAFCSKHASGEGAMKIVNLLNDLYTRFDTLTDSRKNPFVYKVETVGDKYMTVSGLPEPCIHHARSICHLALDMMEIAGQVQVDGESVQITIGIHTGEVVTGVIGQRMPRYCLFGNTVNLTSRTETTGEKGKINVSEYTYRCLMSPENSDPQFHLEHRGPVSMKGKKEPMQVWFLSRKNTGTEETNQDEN
T1 sequence (P19686 1-690 partner): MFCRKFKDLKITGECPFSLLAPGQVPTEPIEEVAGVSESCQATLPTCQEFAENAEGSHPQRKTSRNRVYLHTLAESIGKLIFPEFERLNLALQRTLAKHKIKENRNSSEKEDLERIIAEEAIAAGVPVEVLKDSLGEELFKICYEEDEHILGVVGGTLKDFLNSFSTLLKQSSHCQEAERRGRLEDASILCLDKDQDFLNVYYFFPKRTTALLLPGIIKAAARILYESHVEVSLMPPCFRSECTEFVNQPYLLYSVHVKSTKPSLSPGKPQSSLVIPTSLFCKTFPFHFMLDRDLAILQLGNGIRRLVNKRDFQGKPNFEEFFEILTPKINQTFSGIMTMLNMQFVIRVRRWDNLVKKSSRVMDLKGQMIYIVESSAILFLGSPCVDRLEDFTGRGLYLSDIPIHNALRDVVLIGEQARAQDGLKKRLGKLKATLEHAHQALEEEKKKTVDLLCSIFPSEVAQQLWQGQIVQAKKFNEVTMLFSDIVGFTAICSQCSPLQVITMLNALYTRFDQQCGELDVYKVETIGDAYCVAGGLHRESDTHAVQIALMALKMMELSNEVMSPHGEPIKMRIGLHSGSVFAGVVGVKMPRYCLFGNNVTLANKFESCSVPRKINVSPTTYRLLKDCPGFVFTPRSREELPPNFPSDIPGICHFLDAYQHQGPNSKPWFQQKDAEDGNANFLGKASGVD
Procedure: B-1. Effect on a Recombinant Guanylate Cyclase Reporter Cell Line
The cellular activity of the compounds according to the invention was determined using a recombinant guanylate cyclase reporter cell line, as described in F. Wunder et al., Anal. Biochem. 339, 104-112 (2005).

[2] = Pharmacokinetic parameters following intravenous and oral administration in rats; assay type: in vivo, male Wistar rats; conditions: for clearance / MRT / half-life: male, Wistar, rat, plasma; for clearance: read-out: CLplasma (converted); for MRT: read-out: MRT; for half-life: read-out: t½ (converted)
Procedure: (§1) B-2. Determination of Pharmacokinetic Parameters Following Intravenous and Oral Administration
(§2) The pharmacokinetic parameters of the compounds according to the invention were determined in male Wistar rats and/or in female beagles and/or in cynomolgus monkeys and/or in male CD-1 mice. Intravenous administration in the case of mice and rats was carried out by means of a species-specific plasma/DMSO formulation, and in the case of dogs and monkeys by means of a water/PEG400/ethanol formulation. In all species, oral administration of the dissolved substance was performed via gavage, based on a water/PEG400/ethanol formulation.
(§3) An internal standard (which may also be a chemically unrelated substance) was added to the samples of the compounds of the invention, calibration samples and qualifiers, and there followed protein precipitation by means of acetonitrile in excess. Addition of a buffer solution matched to the LC conditions, and subsequent vortexing, was followed by centrifugation at 1000 g. The supernatant was analysed by LC-MS/MS using C18 reversed-phase columns and variable mobile phase mixtures. The substances were quantified via the peak heights or areas from extracted ion chromatograms of specific selected ion monitoring experiments.
(§4) The plasma concentration/time plots determined were used to calculate the pharmacokinetic parameters such as AUC, Cmax, t1/2 (terminal half-life), F (bioavailability), MRT (mean residence time) and CL (clearance), by means of a validated pharmacokinetic calculation program.
(§5) Since the substance quantification was performed in plasma, it was necessary to determine the blood/plasma distribution of the substance in order to be able to adjust the pharmacokinetic parameters correspondingly.
(§6) For this purpose, a defined amount of substance was incubated in K3 EDTA whole blood of the species in question in a rocking roller mixer for 20 min. After centrifugation at 1000 g, the plasma concentration was measured (by means of LC-MS/MS; see above) and determined by calculating the ratio of the Cblood/Cplasma value.

[3] = Pharmacokinetic parameters following intravenous and oral administration in dogs; assay type: in vivo, female beagles; conditions: for MRT / clearance / half-life: female, beagle, dog, plasma; for clearance: read-out: CLplasma (converted); for half-life: read-out: t½ (converted)
Procedure: as §1, §2, §3, §4, §5, §6

[4] = intravenous administration (i.v.)

Row | Structure (SMILES) | EC50 [1] [nM] | MEC (minimum effective concentration) [1] [nM] | AUCnorm ([2]; intravenous administration) [kg·h/L] | clearance ([2]; iv, intravenous administration) [mL/min/kg] | MRT ([2]; iv, intravenous administration) [h] | half-life ([2]; iv, intravenous administration) [h] | MRT ([2]; po, oral administration (p.o.)) [h] | half-life ([2]; po, oral administration (p.o.)) [h] | AUCnorm ([2]; oral administration (p.o.)) [kg·h/L] | F ([2]; oral administration (p.o.)) [%] | MRT [3, 4] [h] | clearance [3, 4] [mL/min/kg] | half-life [3, 4] [h] | MRT ([3]; oral administration (p.o.)) [h] | half-life ([3]; oral administration (p.o.)) [h] | AUCnorm [3, 4] [kg·h/L] | AUCnorm ([3]; oral administration (p.o.)) [kg·h/L] | F ([3]; oral administration (p.o.)) [%] | MEC (minimum effective concentration) ([1]; hydrochloride) [nM]
1 | CC(C)CN1CCN(c2ccc(-c3ccc(Cl)cc3N3CCC[C@@H](n4ncc(C(=O)O)c4C(F)F)C3)cc2)CC1 (single isomer, unassigned) [Example 2, 1-[1-{4-Chloro-4′-[4-(2-methylpropyl)piperazin-1-yl][1,1′-biphenyl]-2-yl}piperidin-3-yl]-5-(difluoromethyl)-1H-pyrazole-4-carboxylic acid] | 8.6 | 1.0 | 7.08 | 2.33 | 3.44 | 3.13 | 6.23 | 3.96 | 3.77 | 53.3 | 25.6 | 0.167 | 17.7 | 21.3 | 14 | 81.7 | 67.7 | 82.8 | 
2 | CC(C)CN1CCN(c2ccc(-c3ccc(Cl)cc3N3CCCC(n4ncc(C(=O)O)c4C(F)(F)F)C3)cc2)CC1 (single isomer, unassigned) [Example 9, 1-[1-{4-chloro-4′-[4-(2-methylpropyl)piperazin-1-yl][1,1′-biphenyl]-2-yl}piperidin-3-yl]-5-(trifluoromethyl)-1H-pyrazole-4-carboxylic acid hydrochloride] | 11 |  | 5.48 | 3 | 5.83 | 4.1 | 8.51 | 4.96 | 4.50 | 82.1 | 10.3 | 0.5 | 7.86 | 13.7 | 9.28 | 37.4 | 31.7 | 84.8 | 2.2
